This is an account of results in PubChem BioAssay (NCI).

Some test systems named below: OVCAR-5 ovarian; UO-31 renal; MOLT-4 leukemia; HT29 colon; BT-549 breast; SN12C renal; MCF7 breast; UACC-62 melanoma; SK-OV-3 ovarian; HL-60(TB) leukemia.
Common to all, as to test: NCI anticancer screen, dose series, 48 h

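These data come from cells grown in 96-well plates and exposed to compound for 48 hours at five concentrations. Here, GI50 denotes the concentration required for 50% inhibition of growth. TGI is the concentration that stops growth completely.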 Some results are limits rather than exact numbers.

With `Cc1nc(N)c(N2CCN(C#N)CC2)c(=O)[nH]1`, the TGI in the assay with OVCAR-5 ovarian, in the assay on UO-31 renal, with MOLT-4 leukemia, with HT29 colon, in the assay with BT-549 breast and with SN12C renal was greater than 100 µM throughout. This molecule also came in with a TGI with MCF7 breast greater than 100 µM.
As to `C[n+]1cc2cc(O)c(O)cc2c2ccc3cc(O)c(O)cc3c21`, the TGI in the assay with UACC-62 melanoma is 5.34 µM; with OVCAR-5 ovarian it was greater than 100 µM; in the assay on UO-31 renal, 5.61 µM; with MOLT-4 leukemia, 11.2 µM; in the assay on HT29 colon, 66.9 µM; with BT-549 breast, 9.93 µM. In addition, the results for the TGI with SK-OV-3 ovarian, with SN12C renal and with MCF7 breast were greater than 53 µM, 26 µM and 9.09 µM, respectively.
As to `CCOC(=O)c1c(N2CCCC2)[nH]c(=O)c(C(c2ccc(OC)cc2)c2c(O)c(C(=O)OCC)c(N3CCCC3)[nH]c2=O)c1O`, the TGI in the assay with UACC-62 melanoma, in the assay on OVCAR-5 ovarian, with UO-31 renal, in the assay with MOLT-4 leukemia, in the assay on BT-549 breast and in the assay with SK-OV-3 ovarian was greater than 100 µM in each case. Moreover, the TGI in the assay on SN12C renal and in the assay with MCF7 breast was greater than 100 µM throughout.
With `O=C(/C=C/c1ccc(Cl)cc1)Oc1ccc(C=C2CCC/C(=C\c3ccc(OC(=O)/C=C/c4ccc(Cl)cc4)cc3)C2=O)cc1`, the TGI in the assay with UACC-62 melanoma, with OVCAR-5 ovarian, in the assay with UO-31 renal, with MOLT-4 leukemia, in the assay on HT29 colon and in the assay on BT-549 breast was greater than 100 µM throughout. Further, the TGI in the assay with SK-OV-3 ovarian, in the assay on SN12C renal and in the assay with MCF7 breast was greater than 100 µM each time.
As for `O=C(/C=C/c1ccc(O)c(O)c1)OCCc1ccc2ccccc2c1`, the TGI was found to be 13.9 µM in the assay with UACC-62 melanoma; 29.7 µM in the assay with OVCAR-5 ovarian; 13.1 µM in the assay on UO-31 renal; 11.3 µM with MOLT-4 leukemia; 25.6 µM in the assay on HT29 colon; 15.7 µM with BT-549 breast. Moreover, the TGI turned out to be 26.3 µM in the assay on SK-OV-3 ovarian, 17.8 µM in the assay on SN12C renal and 8.91 µM in the assay on MCF7 breast.
For the molecule `COc1ccc2c(c1)c1c(n2CCN2CCCCC2)-c2cccc(OC)c2CC1`, the TGI came out at 32.9 µM with UACC-62 melanoma; 32.8 µM in the assay on OVCAR-5 ovarian; 24.7 µM in the assay on UO-31 renal; 48 µM with MOLT-4 leukemia; 17.6 µM with HT29 colon; 41.6 µM with BT-549 breast. Moreover, the values for the TGI in the assay on SK-OV-3 ovarian, in the assay on SN12C renal and in the assay with MCF7 breast were greater than 100 µM, 36.8 µM and 35.4 µM, respectively.
`Cc1ccc2cccc(-c3cccc4ccccc34)c2n1`: the TGI worked out at 61.9 µM in the assay with UACC-62 melanoma; 55.5 µM with OVCAR-5 ovarian; 16.3 µM with HL-60(TB) leukemia; 51.4 µM with UO-31 renal; 40.6 µM in the assay with MOLT-4 leukemia; 76.9 µM in the assay on HT29 colon. The TGI with BT-549 breast was greater than 100 µM; in the assay with SK-OV-3 ovarian, 75.2 µM; in the assay with SN12C renal, greater than 100 µM.
Regarding `COc1cccc(C2c3cc4c(cc3OC(O)C2C)OCO4)c1OC` (stereo not drawn), the TGI in the assay with UACC-62 melanoma worked out at 44.7 µM; in the assay on OVCAR-5 ovarian, 60.9 µM; with HL-60(TB) leukemia, 4.83 µM; with MOLT-4 leukemia it was 18.5 µM; in the assay on HT29 colon it was 24.5 µM; in the assay with BT-549 breast, 65.6 µM. The results for the TGI in the assay on SN12C renal and in the assay on MCF7 breast were 64 µM and greater than 100 µM, respectively.
On to `O=c1c(F)cn2c(=O)n1CCCCCCCn1c(=O)c(F)cn(c1=O)CCCCCCC2`, for which the TGI with UACC-62 melanoma, in the assay on OVCAR-5 ovarian, with HL-60(TB) leukemia, with UO-31 renal, with MOLT-4 leukemia and in the assay with HT29 colon was greater than 100 µM throughout. The TGI with SK-OV-3 ovarian, in the assay on SN12C renal and with MCF7 breast was greater than 100 µM each time.
Turning to `CCCCI(O)OS(=O)(=O)c1ccc(C)cc1`, the TGI in the assay with UACC-62 melanoma was greater than 100 µM; in the assay with OVCAR-5 ovarian it was greater than 100 µM; with UO-31 renal it was 55.4 µM; in the assay with MOLT-4 leukemia, greater than 100 µM; in the assay on HT29 colon it was greater than 100 µM; with BT-549 breast it was greater than 100 µM. The TGI in the assay on SK-OV-3 ovarian, in the assay with SN12C renal and in the assay on MCF7 breast was greater than 100 µM each time.
On to `COC(=O)[C@]1(C)CCC[C@@]2(C)C1CC[C@]13C=C(C(C)C)[C@H](CC21)CC3(Cl)C#N` (stereo partly drawn), for which the TGI in the assay on UACC-62 melanoma was greater than 100 µM; with OVCAR-5 ovarian it was greater than 100 µM; with UO-31 renal, greater than 100 µM; with MOLT-4 leukemia, greater than 100 µM; with HT29 colon, greater than 100 µM; with BT-549 breast, 86 µM. The TGI in the assay on SK-OV-3 ovarian, with SN12C renal and in the assay on MCF7 breast was greater than 100 µM in each case.
`COc1cc2nc(-c3ccc(Cl)cc3)cc(OCCCN3CCOCC3)c2cc1OC`: the GI50 in the assay with UACC-62 melanoma is 2.26 µM; in the assay on OVCAR-5 ovarian, 1.58 µM; with MOLT-4 leukemia it was 2.85 µM; in the assay with HT29 colon it was 0.61 µM; in the assay with BT-549 breast, 2.59 µM; in the assay on SK-OV-3 ovarian, 3 µM. Also, the GI50 with SN12C renal is 1.3 µM; in the assay on MCF7 breast, 2.49 µM. Also, the TGI was 6.35 µM with UACC-62 melanoma; greater than 100 µM in the assay with OVCAR-5 ovarian; greater than 100 µM in the assay with MOLT-4 leukemia; greater than 100 µM in the assay with HT29 colon; greater than 100 µM in the assay with BT-549 breast; greater than 100 µM in the assay with SK-OV-3 ovarian. For the same molecule, the TGI with SN12C renal and with MCF7 breast was greater than 100 µM each time.
As to `NCCN1CCCCCc2ccccc21`, the TGI in the assay on UACC-62 melanoma, with HL-60(TB) leukemia, with UO-31 renal, in the assay on MOLT-4 leukemia, with HT29 colon and with SK-OV-3 ovarian was greater than 10 µM in each case. For the same molecule, the TGI in the assay on SN12C renal and with MCF7 breast was greater than 10 µM in each case.
As to `O=c1[nH]c(NCc2ccncc2)nc2nc[nH]c12`, the TGI with UACC-62 melanoma, with OVCAR-5 ovarian, in the assay with UO-31 renal, with MOLT-4 leukemia, in the assay with HT29 colon and in the assay on BT-549 breast was greater than 100 µM throughout. Also, the TGI with SK-OV-3 ovarian, in the assay on SN12C renal and in the assay on MCF7 breast was greater than 100 µM each time.
